According to patent US20090118274A1, “MONOCYCLIC AMINOPROPYL TETRAHYDRO-PYRAZOLO-PYRIDINE MODULATORS OF CATHEPSIN S” (priority 2007, published 2009):

molecular target: T1, Recombinant human cathepsin S (CatS) (Homo sapiens, UniProt P25774); assay: Recombinant human cathepsin S (CatS) fluorogenic substrate inhibition assay; assay type: biochemical; conditions: not given
T1 construct: made in house
Description: Recombinant human cathepsin S (CatS) was expressed in the baculovirus system and purified in one step with a thiopropyl-sepharose column. […] The assay is run in 150 mM sodium acetate pH 5.0 containing 1.5 mM DTT and 150 mM NaCl. […] Measurements are taken every min for 20 min. The rate is calculated from the slope of the increase in fluorescence and the percent inhibition is calculated from this.

T1 sequence (P25774 115-331): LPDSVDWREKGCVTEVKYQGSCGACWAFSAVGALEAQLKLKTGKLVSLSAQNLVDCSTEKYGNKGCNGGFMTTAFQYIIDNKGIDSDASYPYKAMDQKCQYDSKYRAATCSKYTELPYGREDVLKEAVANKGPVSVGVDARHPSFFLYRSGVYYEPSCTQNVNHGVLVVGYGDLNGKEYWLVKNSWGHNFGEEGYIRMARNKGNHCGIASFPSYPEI

| IC50 | SMILES |
| --- | --- |
| 800 nM | CC(C)CCNCc1cc(-c2nn(CC(O)CN3CCC(NS(C)(=O)=O)CC3)c3c2CN(S(C)(=O)=O)CC3)ccc1C(F)(F)F (stereo not drawn) [Example 283, N-{1-[2-Hydroxy-3-(5-methanesulfonyl-3-3-[(3-methyl-butylamino)-methyl]-4-trifluoromethyl-phenyl-4,5,6,7-tetrahydro-pyrazolo[4,3-c]pyridin-1-yl)-propyl]-piperidin-4-yl}-methanesulfonamide] |
| 70 nM | CS(=O)(=O)N1CCc2c(c(-c3ccc(Cl)c(CNC(=O)c4ccc(F)cc4)c3)nn2CC(O)CN2CCC(C(F)(F)F)CC2)C1 (stereo not drawn) [Example 15, N-(2-Chloro-5-{1-[2-hydroxy-3-(4-trifluoromethyl-piperidin-1-yl)-propyl]-5-methanesulfonyl-4,5,6,7-tetrahydro-1H-pyrazolo[4,3-c]pyridin-3-yl}-benzyl)-4-fluoro-benzamide] |

same assay, conditions: average of results obtained; substrate Z-Valine-Valine-Arginine-AMC 10 μM, pH 5.0; read-out: CatS IC50

| SMILES | IC50 |
| --- | --- |
| CC(=O)Nc1ccc(C(=O)NCc2cc(-c3nn(CC(O)CN4CCCC4)c4c3CN(S(C)(=O)=O)CC4)ccc2C(F)(F)F)cc1 (stereo not drawn) [Example 240, 4-Acetylamino-N-{5-[1-(2-hydroxy-3-pyrrolidin-1-yl-propyl)-5-methanesulfonyl-4,5,6,7-tetrahydro-1H-pyrazolo[4,3-c]pyridin-3-yl]-2-trifluoromethyl-benzyl}-benzamide] | 970 nM |
| CS(=O)(=O)N1CCc2c(c(-c3ccc(C(F)(F)F)c(C(=O)NCc4ccccc4)c3)nn2CC(O)CN2CCCC2)C1 (stereo not drawn) [Example 193, N-Benzyl-5-[1-(2-hydroxy-3-pyrrolidin-1-yl-propyl)-5-methanesulfonyl-4,5,6,7-tetrahydro-1H-pyrazolo[4,3-c]pyridin-3-yl]-2-trifluoromethyl-benzamide] | 5600 nM |

Continued, values first:

| IC50 | SMILES |
| --- | --- |
| 150 nM | CN(C)C1CCN(CCCn2nc(-c3ccc(C(F)(F)F)c(CNC(=O)c4ccc(F)cc4)c3)c3c2CCN(S(C)(=O)=O)C3)C1 (stereo not drawn) [Example 5, N-(5-{1-[3-(3-Dimethylamino-pyrrolidin-1-yl)-propyl]-5-methanesulfonyl-4,5,6,7-tetrahydro-1H-pyrazolo[4,3-c]pyridin-3-yl}-2-trifluoromethyl-benzyl)-4-fluoro-benzamide] |
| 100 nM | CC(=O)NC1CCN(CC(Cn2nc(-c3ccc(Cl)c(CNC(=O)c4ccc(F)cc4)c3)c3c2CCN(S(C)(=O)=O)C3)OC(C)=O)CC1 (stereo not drawn) [Example 80, Acetic acid 1-(4-acetylamino-piperidin-1-ylmethyl)-2-(3-{4-chloro-3-[(4-fluoro-benzoylamino)-methyl]-phenyl}-5-methanesulfonyl-4,5,6,7-tetrahydro-pyrazolo[4,3-c]pyridin-1-yl)-ethyl ester] |
| 80 nM | CC(C)CC(=O)NCc1cc(-c2nn(CC(O)CN3CCC(C(C)(C)C)CC3)c3c2CN(C(=O)CO)CC3)ccc1C(F)(F)F (stereo not drawn) [Example 298, N-{5-[1-[3-(4-tert-Butyl-piperidin-1-yl)-2-hydroxy-propyl]-5-(2-hydroxy-acetyl)-4,5,6,7-tetrahydro-1H-pyrazolo[4,3-c]pyridin-3-yl]-2-trifluoromethyl-benzyl}-3-methyl-butyramide] |
| 40 nM | NC(=O)N1CCc2c(c(-c3ccc(C(F)(F)F)c(CNC(=O)c4ccc(F)cc4)c3)nn2CC(O)CN2CCC3(CCNC3=O)CC2)C1 (stereo not drawn) [Example 9, 3-{3-[(4-Fluoro-benzoylamino)-methyl]-4-trifluoromethyl-phenyl}-1-[2-hydroxy-3-(1-oxo-2,8-diaza-spiro[4.5]dec-8-yl)-propyl]-1,4,6,7-tetrahydro-pyrazolo[4,3-c]pyridine-5-carboxylic acid amide] |
| 20 nM | O=C(NCc1cc(-c2nn(CC(O)CN3CCC4(CCNC4=O)CC3)c3c2CN(C(=O)CO)CC3)ccc1C(F)(F)F)c1ccc(F)cc1 (stereo not drawn) [Example 8, 4-Fluoro-N-(5-{5-(2-hydroxy-acetyl)-1-[2-hydroxy-3-(1-oxo-2,8-diazaspiro[4.5]dec-8-yl)-propyl]-4,5,6,7-tetrahydro-1H-pyrazolo[4,3-c]pyridin-3-yl}-2-trifluoromethyl-benzyl)-benzamide] |
